Source: ChEMBL document CHEMBL4229373, “A comprehensive review of chalcone derivatives as antileishmanial agents” (Eur J Med Chem, 2018)
≈ marks a conversion by molar mass, not a printed value.

Columns and labels:
Leishmania amazonensis [1] = assay: Antileishmanial activity against Leishmania amazonensis MHOM/BR/76/LTB-012 axenic amastigotes after 72 hrs by MTT dye based assay; assay type: functional, organism-based; conditions: MHOM/BR/76/LTB-012, 72 h
Leishmania amazonensis [2] = assay: Antileishmanial activity against Leishmania amazonensis MHOM/BR/75/M-2904 strain Lb2904 amastigotes infected in mouse J774A1 cells after 48 hrs by Giemsa staining based microscopic method; assay type: functional, organism-based; conditions: MHOM/BR/75/M-2904 Lb290, J774.A1, 48 h
Leishmania donovani [3] = assay: Antileishmanial activity against Leishmania donovani MHOM/SD/00/1SD2D […] amastigotes infected in human peripheral blood monocyte-derived macrophages after 48 hrs by [3H]-thymidine incorporation assay; assay type: functional, organism-based
Leishmania major = assay: Antileishmanial activity against Leishmania major amastigotes infected in human peripheral blood monocyte-derived macrophages; assay type: functional, organism-based
Leishmania amazonensis [4] = assay: Antileishmanial activity against Leishmania amazonensis MHOM/BR/76/LTB-012 axenic amastigotes; assay type: functional, organism-based
Leishmania panamensis = assay: Antileishmanial activity against GFP fused Leishmania panamensis MHOM/CO/87/UA140 amastigotes infected in human […] cells after 72 hrs by flow cytometry; assay type: functional, organism-based; conditions: MHOM/CO/87/UA140, 72 h
Leishmania donovani [5] = assay: Antileishmanial activity against Leishmania donovani L82 amastigotes infected in CD1 mouse peritoneal macrophages after 5 days by Giemsa staining based microscopic method; assay type: functional; conditions: L82, 120 h, read-out: ED50 (the source's name)
Leishmania donovani [6] = assay: Antileishmanial activity against Leishmania donovani amastigotes; assay type: functional, organism-based
Leishmania donovani [7] = assay: Antileishmanial activity against DsRed-positive Leishmania donovani Dd8 amastigotes infected in mouse J774A1 cells after 48 hrs by flow cytometry; assay type: functional, organism-based; conditions: Dd8, J774.A1, 48 h
Leishmania amazonensis [8] = assay: Antileishmanial activity against Leishmania amazonensis LV/79 (MPRO/BR/72/M 1841) amastigotes infected in Balb/c mouse macrophages after 48 hrs by Giemsa staining based light microscopic method; assay type: functional; conditions: read-out: ED50 (the source's name)

Question: With COc1cc(OC)c(C(=O)/C=C/c2ccccc2)c(O)c1OC as the compound, how does the IC50 (Leishmania amazonensis [1]) read?
Answer: Its IC50 is 800 nM.

Question: Which IC50 (Leishmania amazonensis [2]) does the source give for COc1ccc(/C=C/C(=O)c2ccccc2)cc1 [4-METHOXY CHALCONE] here?
Answer: The IC50 was > 30000 nM.

Question: For C=CCOc1ccc(C(=O)/C=C/c2ccc(OC)c(OC)c2)cc1, which IC50 (Leishmania donovani [3]) is on record?
Answer: The IC50 was 420 nM.

Question: Which IC50 (Leishmania major) does the source give for C=CC(C)(C)c1cc(/C=C/C(=O)c2ccc(O)cc2)c(OC)cc1O [LICOAGROCHACONE A] here?
Answer: Its IC50 is 0.5 µg/mL (≈ 1.48 µM).

Question: COc1cc(O)c(C(=O)/C=C/c2ccc(O)cc2)c(O)c1 was tested. Which IC50 (Leishmania amazonensis [4]) did it give?
Answer: Its IC50 is 61400 nM.

Question: Which IC50 (Leishmania amazonensis [1]) does the source give for COc1cc(O)cc(O)c1C(=O)/C=C/c1ccccc1 [CARDAMOMIN] here?
Answer: Its IC50 is 8000 nM.

Question: For O=C(/C=C/c1cccc(Nc2ccnc3cc(Cl)ccc23)c1)c1ccc(Br)cc1, which IC50 (Leishmania panamensis) is on record?
Answer: Its IC50 is 0.88 µg/mL (≈ 1.9 µM).

Question: For O=C(/C=C/c1cccc(Nc2ccnc3cc(Cl)ccc23)c1)c1ccc(Cl)cc1, which IC50 (Leishmania panamensis) is on record?
Answer: Its IC50 is 0.79 µg/mL (≈ 1.88 µM).

Question: How did the IC50 (Leishmania panamensis) turn out when COc1ccc(/C=C/C(=O)c2ccc(OCCCCOc3cccc4cccnc34)cc2)cc1OC was run?
Answer: Its IC50 is 6.24 µg/mL (≈ 12.9 µM).

Question: Which EC50 (Leishmania donovani [5]) does the source give for COc1ccc(C(=O)/C=C/c2cnc3ccccc3c2)c(OC)c1 here?
Answer: Its EC50 is 1500 nM.

Question: COc1ccc(/C=C/C(=O)c2ccc(OCCCCCOc3cc(Cl)ccc3Oc3ccc(Cl)cc3Cl)cc2)cc1OC was tested. Which IC50 (Leishmania panamensis) did it give?
Answer: Its IC50 is 13.5 µg/mL (≈ 21 µM).

Question: With COc1ccc(OC)c(C(=O)/C=C/c2ccccn2)c1 as the compound, how does the IC50 (Leishmania donovani [6]) read?
Answer: The IC50 was 950 nM.

Question: How did the IC50 (Leishmania amazonensis [2]) turn out when O=C(/C=C/c1cccc(S(=O)(=O)Nc2ccccc2)c1)c1ccccc1 was run?
Answer: Its IC50 is 2000 nM.

Question: Which IC50 (Leishmania donovani [7]) does the source give for CC(=O)c1sc(N/N=C/c2cccc(/C=C/C(=O)c3ccco3)c2)nc1C here?
Answer: Its IC50 is 14000 nM.

Question: Which EC50 (Leishmania donovani [5]) does the source give for O=C(/C=C/c1ccc2ccccc2c1)c1ccc(O)cc1 here?
Answer: Its EC50 is 1380 nM.

Question: For C=CCOc1ccc(C(=O)/C=C/c2cccc(OC)c2OC)cc1, which IC50 (Leishmania donovani [3]) is on record?
Answer: The IC50 was 650 nM.

Question: Which EC50 (Leishmania amazonensis [8]) does the source give for COc1cc(O)c(C(=O)/C=C/c2ccccc2)c(O)c1 here?
Answer: The EC50 was 24 µg/mL (≈ 88.8 µM).

Question: Which IC50 (Leishmania panamensis) does the source give for COc1ccc(/C=C/C(=O)c2ccc(OCCCOc3cc(Cl)ccc3Oc3ccc(Cl)cc3Cl)cc2)cc1OC here?
Answer: The IC50 was 9.4 µg/mL (≈ 15.3 µM).

Question: Which IC50 (Leishmania panamensis) does the source give for COc1ccc(/C=C/C(=O)c2ccc(OCCCCOc3cc(Cl)ccc3Oc3ccc(Cl)cc3Cl)cc2)cc1OC here?
Answer: The IC50 was 10.2 µg/mL (≈ 16.2 µM).

Question: How did the EC50 (Leishmania donovani [5]) turn out when O=C(/C=C/c1ccccn1)c1ccc(O)cc1 was run?
Answer: The EC50 was 1480 nM.
